Molecular target: CXCR3 (Macaca fascicularis, UniProt A0A2K5UV19)
Assay: functional cellular assay measuring calcium flux in CXCR3 transfected cells (block of CXCR3/IP-10 interaction)
Assay type: cell-based
Settings: IP-10 induced intracellular calcium flux; Cyno-CHO cells stably expressing recombinant CXCR3 and G-alpha-16
In short: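 Cyno-CHO cells stably co-expressing recombinant CXCR3 and G-alpha-16, loaded with Ca-4 dye (HBSS, 10 mM HEPES pH 7.4, 2 mM probenecid) for 1 h at 37 °C. Compound (10 microM final) preincubated 15 min at room temperature, then IP-10 added at EC80. Intracellular calcium flux read by fluorescence (ex 480/em 540 nm).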

Chain of CXCR3 (A0A2K5UV19 entry or part of it): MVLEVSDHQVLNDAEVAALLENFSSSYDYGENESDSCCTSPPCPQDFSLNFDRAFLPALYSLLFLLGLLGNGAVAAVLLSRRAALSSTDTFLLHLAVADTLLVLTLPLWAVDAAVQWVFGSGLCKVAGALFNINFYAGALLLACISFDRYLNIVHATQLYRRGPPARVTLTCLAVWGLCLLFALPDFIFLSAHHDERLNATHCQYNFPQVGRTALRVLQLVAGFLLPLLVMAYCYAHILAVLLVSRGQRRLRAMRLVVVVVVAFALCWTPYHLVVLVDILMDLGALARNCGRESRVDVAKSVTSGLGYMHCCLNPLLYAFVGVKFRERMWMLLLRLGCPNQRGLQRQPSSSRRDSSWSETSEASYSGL

| Compound | IC50 [nM] |
| --- | --- |
| CN(CC(=O)N1CCN(c2ccccc2C(=O)Nc2ccncc2)CC1)C(=O)c1ccccc1 [2-{4-[2-(Benzoyl-methyl-amino)-acetyl]-piperazin-1-yl}-N-pyridin-4-yl-benzamide] | 8.4 |
| Cc1cc(C)n(CC(=O)N2CCN(c3ccccc3C(=O)Nc3ccnc(OCC(F)(F)F)c3)CC2)n1 [2-{4-[2-(3,5-Dimethyl-pyrazol-1-yl)-acetyl]-piperazin-1-yl}-N-[2-(2,2,2-trifluoro-ethoxy)-pyridin-4-yl]-benzamide] | 8.8 |
| Cc1cc(C)n(CC(=O)N2CCN(c3ccccc3C(=O)Nc3ccc(-c4ccccc4)nc3)CC2)n1 [2-{4-[2-(3,5-Dimethyl-pyrazol-1-yl)-acetyl]-piperazin-1-yl}-N-(6-phenyl-pyridin-3-yl)-benzamide] | 11.5 |
| Cc1cc(C(=O)NCC(=O)N2CCN(c3ccccc3C(=O)Nc3cccnc3)CC2)nn1C [1,5-Dimethyl-1H-pyrazole-3-carboxylic acid (2-oxo-2-{4-[2-(pyridin-3-ylcarbamoyl)-phenyl]-piperazin-1-yl}-ethyl)-amide] | 20 |
| Cc1cc(C)n(CC(=O)N2CCN(c3ccccc3C(=O)Nc3nc4cc(Cl)ccc4s3)CC2)n1 [N-(5-Chloro-benzothiazol-2-yl)-2-{4-[2-(3,5-dimethyl-pyrazol-1-yl)-acetyl]-piperazin-1-yl}-benzamide] | 17 |
| Cc1cc(C)n(CC(=O)N2CCN(c3ccccc3C(=O)Nc3ccc4ncccc4c3)CC2)n1 [2-{4-[2-(3,5-Dimethyl-pyrazol-1-yl)-acetyl]-piperazin-1-yl}-N-quinolin-6-yl-benzamide] | 11.5 |
| Cc1cc(C)n(CC(=O)N2CCN(c3ccccc3C(=O)Nc3cc(CC(C)(C)C)no3)CC2)n1 [N-[3-(2,2-Dimethyl-propyl)-isoxazol-5-yl]-2-{4-[2-(3,5-dimethyl-pyrazol-1-yl)-acetyl]-piperazin-1-yl}-benzamide] | 9.5 |
| COc1cc(NC(=O)c2cc(F)ccc2N2CCN(C(=O)CN3CCCCC3=O)CC2)ccn1 [5-Fluoro-N-(2-methoxy-pyridin-4-yl)-2-{4-[2-(2-oxo-piperidin-1-yl)-acetyl]-piperazin-1-yl}-benzamide] | 9 |
| Cc1cc(C)n(CC(=O)N2CCN(c3ccccc3C(=O)Nc3ccc(N4CCOCC4)nc3)CC2)n1 [2-{4-[2-(3,5-Dimethyl-pyrazol-1-yl)-acetyl]-piperazin-1-yl}-N-(6-morpholin-4-yl-pyridin-3-yl)-benzamide] | 12.5 |
| Cc1cc(C)n(CC(=O)N2CCN(c3ccccc3C(=O)Nc3cc(-c4ccccc4)no3)CC2)n1 [2-{4-[2-(3,5-Dimethyl-pyrazol-1-yl)-acetyl]-piperazin-1-yl}-N-(3-phenyl-isoxazol-5-yl)-benzamide] | 8.8 |
| Cc1nc(C)c(C(=O)NCC(=O)N2CCN(c3ccccc3C(=O)Nc3cccnc3)CC2)s1 [2,4-Dimethyl-thiazole-5-carboxylic acid (2-oxo-2-{4-[2-(pyridin-3-ylcarbamoyl)-phenyl]-piperazin-1-yl}-ethyl)-amide] | 13.9 |
| Cc1cc(C)n(CC(=O)N2CCN(c3ccccc3C(=O)Nc3cccc(C(F)(F)F)c3)CC2)n1 [2-{4-[2-(3,5-Dimethyl-pyrazol-1-yl)-acetyl]-piperazin-1-yl}-N-(3-trifluoromethyl-phenyl)-benzamide] | 8 |
| Cc1cc(C)n(CC(=O)N2CCN(c3ccccc3C(=O)Nc3ccnnc3)CC2)n1 [2-{4-[2-(3,5-Dimethyl-pyrazol-1-yl)-acetyl]-piperazin-1-yl}-N-pyridazin-4-yl-benzamide] | 17 |
| Cc1cc(C)n(CC(=O)N2CCN(c3ccccc3C(=O)Nc3ccc(Oc4ccccc4)nc3)CC2)n1 [2-{4-[2-(3,5-Dimethyl-pyrazol-1-yl)-acetyl]-piperazin-1-yl}-N-(6-phenoxy-pyridin-3-yl)-benzamide] | 10 |
| O=C(Nc1cc(Cl)cnc1N1CCN(C(=O)CN2CCCCC2=O)CC1)c1cccc(Cl)c1 [3-Chloro-N-(5-chloro-2-{4-[2-(2-oxo-piperidin-1-yl)-acetyl]-piperazin-1-yl}-pyridin-3-yl)-benzamide] | 7.7 |
| O=C(Nc1cc(Cl)cnc1N1CCN(C(=O)Cn2ccc3cccnc32)CC1)c1cccc(C(F)(F)F)c1 [N-{5-Chloro-2-[4-(2-pyrrolo[2,3-b]pyridin-1-yl-acetyl)-piperazin-1-yl]-pyridin-3-yl}-3-trifluoromethyl-benzamide] | 8.9 |
| Cc1cc(C)n(CC(=O)N2CCN(c3ccccc3C(=O)Nc3cccc(S(=O)(=O)N(C)C)c3)CC2)n1 [2-{4-[2-(3,5-Dimethyl-pyrazol-1-yl)-acetyl]-piperazin-1-yl}-N-(3-dimethylsulfamoyl-phenyl)-benzamide] | 17 |
| Cc1cc(C)n(CC(=O)N2CCN(c3ccccc3NC(=O)c3ccc(Cl)nc3)CC2)n1 [6-Chloro-N-(2-{4-[2-(3,5-dimethyl-pyrazol-1-yl)-acetyl]-piperazin-1-yl}-phenyl)-nicotinamide] | 15 |
| O=C(Nc1ccc(C(F)(F)F)nc1)c1ccccc1N1CCN(C(=O)Cn2ccc3cccnc32)CC1 [2-[4-(2-Pyrrolo[2,3-b]pyridin-1-yl-acetyl)-piperazin-1-yl]-N-(6-trifluoromethyl-pyridin-3-yl)-benzamide] | 6.9 |
| Cc1cc(C)n(CC(=O)N2CC=C(c3ccc(Cl)cc3NC(=O)c3cccc(Cl)c3)CC2)n1 [3-Chloro-N-(5-chloro-2-{1-[2-(3,5-dimethyl-pyrazol-1-yl)-acetyl]-1,2,3,6-tetrahydro-pyridin-4-yl}-phenyl)-benzamide] | 7 |
| Cc1cc(C)n(CC(=O)N2CCN(c3ccccc3C(=O)Nc3cc(C4CCCCC4)no3)CC2)n1 [N-(3-Cyclohexyl-isoxazol-5-yl)-2-{4-[2-(3,5-dimethyl-pyrazol-1-yl)-acetyl]-piperazin-1-yl}-benzamide] | 8.3 |
| Cc1cc(C)n(CC(=O)N2CCN(c3ccccc3C(=O)Nc3cncc(F)c3)CC2)n1 [2-{4-[2-(3,5-Dimethyl-pyrazol-1-yl)-acetyl]-piperazin-1-yl}-N-(5-fluoro-pyridin-3-yl)-benzamide] | 10.8 |
| Cc1cc(C)n(CC(=O)N2CCN(c3ccccc3C(=O)Nc3nc(C(F)(F)F)cs3)CC2)n1 [2-{4-[2-(3,5-Dimethyl-pyrazol-1-yl)-acetyl]-piperazin-1-yl}-N-(4-trifluoromethyl-thiazol-2-yl)-benzamide] | 18 |
| CS(=O)(=O)c1ccc(NC(=O)c2ccccc2N2CCN(C(=O)CN3CCc4cccnc43)CC2)cc1 [2-[4-(2-2,3-Dihydro-pyrrolo[2,3-b]pyridin-1-yl-acetyl)-piperazin-1-yl]-N-(4-methanesulfonyl-phenyl)-benzamide] | 9.7 |
| O=C(Nc1ccncc1)c1ccccc1N1CCN(C(=O)Cc2n[nH]c3ccccc23)CC1 [2-[4-(2-1H-Indazol-3-yl-acetyl)-piperazin-1-yl]-N-pyridin-4-yl-benzamide] | 7.2 |
| Cc1cc(C)n(CC(=O)N2CCN(c3ccccc3C(=O)Nc3nnc(C(C)(C)C)s3)CC2)n1 [N-(5-tert-Butyl-[1,3,4]thiadiazol-2-yl)-2-{4-[2-(3,5-dimethyl-pyrazol-1-yl)-acetyl]-piperazin-1-yl}-benzamide] | 9.7 |

Stronger by IC50, values ahead:

| IC50 [nM] | Compound |
| --- | --- |
| 4.9 | O=C(Nc1ccncc1)c1ccccc1N1CCN(C(=O)Cn2ccc3cccnc32)CC1 [N-Pyridin-4-yl-2-[4-(2-pyrrolo[2,3-b]pyridin-1-yl-acetyl)-piperazin-1-yl]-benzamide] |
| 6.6 | Cc1cc(C)n(CC(=O)N2CCN(c3ccccc3C(=O)Nc3cccnc3)CC2)n1 [2-{4-[2-(3,5-Dimethyl-pyrazol-1-yl)-acetyl]-piperazin-1-yl}-N-pyridin-3-yl-benzamide] |
| 5.4 | Cc1cc(C(=O)NCC(=O)N2CCN(c3ccccc3C(=O)Nc3ccncc3)CC2)n(C)n1 [2,5-Dimethyl-2H-pyrazole-3-carboxylic acid (2-oxo-2-{4-[2-(pyridin-4-ylcarbamoyl)-phenyl]-piperazin-1-yl}-ethyl)-amide] |
| 3.4 | COc1cc(NC(=O)c2ccccc2N2CCN(C(=O)CN3Cc4ccccc4C3=O)CC2)ccn1 [N-(2-Methoxy-pyridin-4-yl)-2-{4-[2-(1-oxo-1,3-dihydro-isoindol-2-yl)-acetyl]-piperazin-1-yl}-benzamide] |
| 5.7 | COc1ccc(NC(=O)c2ccccc2N2CCN(C(=O)Cn3ccc4cccnc43)CC2)cn1 [N-(6-Methoxy-pyridin-3-yl)-2-[4-(2-pyrrolo[2,3-b]pyridin-1-yl-acetyl)-piperazin-1-yl]-benzamide] |
| 5 | Cc1cn(CC(=O)N2CCN(c3ccccc3C(=O)Nc3ccccc3)CC2)c(C)n1 [2-{4-[2-(2,4-Dimethyl-imidazol-1-yl)-acetyl]-piperazin-1-yl}-N-phenyl-benzamide] |
| 6.6 | Cc1cc(C)n(CC(=O)N2CCN(c3ccccc3NC(=O)c3ccccc3)CC2)n1 [N-(2-{4-[2-(3,5-Dimethyl-pyrazol-1-yl)-acetyl]-piperazin-1-yl}-phenyl)-benzamide] |
| 5.1 | Cc1cc(C)n(CC(=O)N2CCN(c3ccccc3C(=O)Nc3cc(C(F)(F)F)no3)CC2)n1 [2-{4-[2-(3,5-Dimethyl-pyrazol-1-yl)-acetyl]-piperazin-1-yl}-N-(3-trifluoromethyl-isoxazol-5-yl)-benzamide] |
| 6.5 | CN(CC(=O)N1CCN(c2ccccc2C(=O)Nc2ccncc2)CC1)C(=O)c1cccn1C [1-Methyl-1H-pyrrole-2-carboxylic acid methyl-(2-oxo-2-{4-[2-(pyridin-4-ylcarbamoyl)-phenyl]-piperazin-1-yl}-ethyl)-amide] |
| 6.6 | O=C(Nc1ccncc1)c1ccccc1N1CCN(C(=O)CN2C(=O)c3ccccc3S2(=O)=O)CC1 [N-Pyridin-4-yl-2-{4-[2-(1,1,3-trioxo-1,3-dihydro-1l6-benzo[d]isothiazol-2-yl)-acetyl]-piperazin-1-yl}-benzamide] |
| 3 | O=C(Nc1ccc(C(F)(F)F)nc1)c1ccccc1N1CCN(C(=O)CN2CCCCC2=O)CC1 [2-{4-[2-(2-Oxo-piperidin-1-yl)-acetyl]-piperazin-1-yl}-N-(6-trifluoromethyl-pyridin-3-yl)-benzamide] |
